What was measured:
Format in all cases: in vivo
[1] = system: Blumeria graminis f. sp. tritici; assay: Test A: wheat powdery mildew, preventive spray on wheat seedlings, visual disease rating; conditions: preventive spray at 40 ppm, rated 8 days after inoculation; for pest or weed control at 40 ppm: Blumeria graminis, 192 h, read-out: Test A disease control rating (100 = 100% disease control, 0 = no disease control relative to the controls)
Method in brief: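 After 8 days in a 20° C. growth chamber, disease was scored visually as % control versus untreated (100 = full control). Plants had received a run-off spray of 40 ppm (≈800 g/ha label rate) in acetone/water plus surfactant, with spore-dust inoculation one day later.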

Septoria tritici = assay: Test B: wheat leaf blotch, preventive spray on wheat seedlings, visual disease rating; conditions: preventive spray at 40 ppm, rated after 48 h + 19 days; for pest or weed control at 40 ppm: Zymoseptoria tritici, 504 h, read-out: Test B disease control rating (100 = 100% disease control, 0 = no disease control relative to the controls)
Method in brief: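 Visual ratings of percent disease control relative to untreated controls were made 19 days after a 48 h saturated-atmosphere incubation at 20° C. Plants had been spore-inoculated one day after a preventive run-off spray at 40 ppm, equivalent to 800 g/ha.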

Botrytis cinerea = assay: Test C: tomato botrytis, preventive spray on tomato seedlings, visual disease rating; conditions: preventive spray at 40 ppm, rated after 48 h + 3 days; for pest or weed control at 40 ppm: Botrytis cinerea, 120 h, read-out: Test C disease control rating (100 = 100% disease control, 0 = no disease control relative to the controls)
Method in brief: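 Compounds applied at 40 ppm (≈800 g/ha) in acetone/water with surfactant, sprayed to run-off on tomato seedlings. Inoculated next day with B. cinerea spores; 48 h saturated humidity at 20 °C, then 3 days at 27 °C. Visual rating as % disease control versus untreated controls.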

Row | SMILES | pest or weed control at 40 ppm [1] [%] | pest or weed control at 40 ppm (Septoria tritici) [%] | pest or weed control at 40 ppm (Botrytis cinerea) [%] | Test A disease control rating (100 = 100% disease control, 0 = no disease control relative to the controls) [1] [%] | Test B disease control rating (100 = 100% disease control, 0 = no disease control relative to the controls) (Septoria tritici) [%] | Test C disease control rating (100 = 100% disease control, 0 = no disease control relative to the controls) (Botrytis cinerea) [%]
1 | C#Cc1ccc2ccc(OC(CC)C(=O)NC(C)(C)COC)cc2c1 (stereo not drawn) [Compound 97, 2-[(7-ethynyl-2-naphthalenyl)oxy]-N-(2-methoxy-1,1-dimethylethyl)-butanamide] | 100 | 100 | 99 | – | – | –
2 | C#CC(C)(C)NC(=S)C(CC)Oc1ccc2ccc(OC)cc2c1 (stereo not drawn) [Compound 164] | 0 | 97 | 99 | – | – | –
3 | CCC(Oc1cnc2ccc(I)cc2c1)C(=O)NC(C)(C)CO (stereo not drawn) [Compound 52] | – | – | – | 0 | 45 | 82
4 | CCOC(Oc1ccc2ccc(OC)cc2c1)C(=O)NC(C)(C)C (stereo not drawn) [Compound 114] | 90 | 99 | 99 | – | – | –
5 | CCC(Oc1cnc2ccc(Br)cc2c1)C(=O)NC1(C(=O)OC)CC1 (stereo not drawn) [Compound 44] | – | – | – | 0 | 0 | 0
6 | C#CC(C)(C)NC(=O)C(OC)Oc1ccc2ccc(OCC)cc2c1 (stereo not drawn) [Compound 69, N-(1,1-dimethyl-2-propyn-1-yl)-2-[(7-ethoxy-2-naphthalenyl)oxy]-2-methoxyacetamide] | 100 | 100 | 100 | – | – | –
7 | C#CCOc1ccc2ccc(OC(CC)C(=O)NC(C)(C)COC)cc2c1 (stereo not drawn) [Compound 133] | – | – | – | 74 | 99 | 100
8 | CCC(Oc1ccc2ccc(Br)cc2c1)C(=O)NC(C)(C)CN (stereo not drawn) [Compound 14] | – | – | – | 90 | 99 | 99
9 | COCC(C)(C)NC(=O)C(OC)Oc1ccc2ccc(C#C[Si](C)(C)C)cc2c1 (stereo not drawn) [Compound 105] | – | – | – | 79 | 100 | 90
10 | C#CC(C)(C)NC(=O)C(CC)Oc1cnc2ccc(Cl)cc2c1 (stereo not drawn) [Compound 41] | – | – | – | 0 | 96 | 96
11 | COCC(C)(C)NC(=O)C(OC)Oc1ccc2ccc(Br)cc2c1 (stereo not drawn) [Compound 90, 2-[(7-bromo-2-naphthalenyl)oxy]-2-methoxy-N-(2-methoxy-1,1-dimethylethyl)acetamide] | 100 | 100 | 100 | – | – | –
12 | CCC(Oc1ccc2ccc(Br)cc2c1)C(=O)NC(C)(C)COC=O (stereo not drawn) [Compound 18] | – | – | – | 99 | 99 | 100
13 | C#Cc1ccc2ncc(OC(CC)C(=O)NCC(C)(C)C)cc2c1 (stereo not drawn) [Compound 153] | – | – | – | 0 | 92 | 93
14 | C#CC(C)(C)NC(=O)C(CC)Oc1ccc2ccc(OC)cc2c1 (stereo not drawn) [Compound 4] | – | – | – | 97 | 100 | 100
15 | CCC(Oc1cnc2ccc(Br)cc2c1)C(=O)NC(C)(C)COCOC (stereo not drawn) [Compound 58] | – | – | – | 99 | 100 | 99
16 | C#CCOc1ccc2ccc(OC(OC)C(=O)NC(C)(C)COC)cc2c1 (stereo not drawn) [Compound 130] | – | – | – | 21 | 98 | 100
17 | C#CC(C)(C)NC(=O)C(CC)Oc1ccc2ccc(OCCC)cc2c1 (stereo not drawn) [Compound 129] | – | – | – | 96 | 99 | 99
18 | CCOc1ccc2ccc(OC(OCC)C(=O)NC(C)(C)COC)cc2c1 (stereo not drawn) [Compound 120] | – | – | – | 90 | 99 | 98
19 | CCC(Oc1ccc2ccc(OC)cc2c1)C(=O)N(C)C(C)(C)C (stereo not drawn) [Compound 166] | 0 | 46 | 99 | – | – | –
20 | CCC(Oc1cc2cc(Br)ccc2cn1)C(=O)NC(C)(C)C (stereo not drawn) [Compound 67] | – | – | – | 92 | 77 | 100
21 | CCCOc1ccc2ccc(OC(OC)C(=O)NC(C)(C)COC)cc2c1 (stereo not drawn) [Compound 124] | – | – | – | 98 | 100 | 99
22 | C#CC(C)(C)NC(=O)C(OCC)Oc1ccc2ccc(OC)cc2c1 (stereo not drawn) [Compound 115] | – | – | – | 79 | 99 | 97
23 | C#Cc1ccc2ncc(OC(CC)C(=O)NC(C)(C)C#C)cc2c1 (stereo not drawn) [Compound 151] | – | – | – | 99 | 100 | 96
24 | CCOc1ccc2ccc(OC(OC)C(=O)NC(C)(C)C#N)cc2c1 (stereo not drawn) [Compound 68] | – | – | – | 100 | 100 | 100
25 | CCC(Oc1cnc2ccc(Br)cc2c1)C(=O)NC(C)(C)C (stereo not drawn) [Compound 37, 2-[(6-bromo-3-quinolinyl)oxy]-N-(1,1-dimethylethyl)butanamide] | 89 | 100 | 99 | – | – | –
26 | CCC(Oc1ccc2ccc(SC)cc2c1)C(=O)NC(C)(C)COC (stereo not drawn) [Compound 91] | – | – | – | 97 | 100 | 100

Reference: patent publication US20120283216A1, “FUNGICIDAL 2-(BICYCLIC ARYLOXY)CARBOXAMIDES” (priority 2009, published 2012)
